Data: PMC9274004, “Deciphering the Molecular Interaction Between the Adhesion G Protein-Coupled Receptor ADGRV1 and its PDZ-Containing Regulator PDZD7” (Frontiers in Molecular Biosciences, 2022)
Where no end group is shown, it is not given here.

Assays:
Format in all cases: binding, murine
[1] = biological target: T1, PDZD7 P1P2 (81-313) (Mus musculus, UniProt E9Q9W7); assay: Fluorescence titration of PDZ tandem P1P2; details: fluorescence titration (Trp, ex 295 nm, em 346-349 nm); P1P2 2 µM in Phosphate Buffer pH 6.6 (50 mM); error from quality of fit
T1 construct: PDZ2ext (206-313), P1P2 (81-313); GST (followed by TEV site) (N, cleaved yes); made in house; host or cells: E. coli BL21 DE3
T1 sequence (E9Q9W7 81-313): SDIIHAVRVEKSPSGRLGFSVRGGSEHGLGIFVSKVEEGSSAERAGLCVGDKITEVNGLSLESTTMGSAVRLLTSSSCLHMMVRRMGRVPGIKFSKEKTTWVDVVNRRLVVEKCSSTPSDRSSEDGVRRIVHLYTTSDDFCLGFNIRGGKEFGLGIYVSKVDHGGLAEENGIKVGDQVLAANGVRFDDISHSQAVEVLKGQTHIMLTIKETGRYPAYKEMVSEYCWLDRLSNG
Experimental: Fluorescence titrations were performed on a Jasco V-730 spectrometer using quartz cell 109.004F-QS (Hellma Analytics) with an optical path of 10 mm and with thick side to reduce the inner filter effect. PDZ1ext and P1P2 were prepared in Phosphate Buffer pH 6.6 (50 mM) at 6 and 2 µM respectively, while PDZ2ext was prepared in Tris HCl pH 7.5 (50 mM) at 5 µM. Variations in the quantum yield of fluorescence of tryptophans from the sample were monitored upon progressive addition of buffered ADGRV1pbm peptide. After peptide addition, the sample is homogenized by in-spectrometer magnet agitation for 30 s. The sample is left to rest for an additional 60 s before measurement. Excitation is set at 295 nm and fluorescence was measured at the maximum emission wavelength (346-349 nm) of the unbound form with a 5 nm bandwidth for both. Titration curves were fitted using the following formula: y = Fp∗p0+(Fx-Fp)∗0.5∗(R∗I0+(1-R)∗x + K-((R∗I0+(1-R)∗x + K)^2-4∗R∗(I0-x)∗x)^1/2), where p0 is the initial protein concentration, I0 the peptide stock concentration, R the p0/I0 ratio, x the volume of added peptide in µl, Fp the fluorescence of PDZ constructs, Fx the fluorescence of the complex, and K the Kd. […]
We monitored the interaction between PDZD7 constructs and a peptide (ADGRV1pbm) corresponding to the last 13 residues of ADGRV1, encompassing its PBM (sequence VELRRIPIADTHL-COOH; PBM underlined). […]

[2] = biological target: T2, PDZD7 PDZ1ext G103R (Mus musculus, UniProt E9Q9W7, G103R); assay: NMR titration of PDZ1ext G103R; details: Tris HCl pH 7.5 (50 mM), 25°C
T2 construct: PDZ1 (81-167), PDZ1ext (81-192); GST (followed by TEV site) (N, cleaved yes); made in house; host or cells: E. coli BL21 DE3
T2 sequence (E9Q9W7 81-192 G103R): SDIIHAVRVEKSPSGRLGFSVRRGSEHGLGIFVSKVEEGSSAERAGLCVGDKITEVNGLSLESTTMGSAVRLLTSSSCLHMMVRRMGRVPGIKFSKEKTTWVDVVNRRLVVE
Experimental: All experiments were recorded at 25°C on a Bruker 800 MHz spectrometer equipped with a triple resonance ^1H{^13C/^15N} cryoprobe. The ^1H, ^15 N and ^13C backbone resonances assignment of PDZ1ext was carried out using 3D HNCA, HNCACB, HNCO, HNCOCA experiments (Tris HCl buffer adjusted to pH 6). The 2D ^1H-^15N HSQC spectra used to compare PDZ1, PDZ1ext, PDZ2 and PDZ2ext were recorded in Tris HCl pH 7.5 (50 mM). The 2D ^1H-^15N HSQC spectra used to compare PDZ1ext, PDZ2ext and P1P2 were recorded in Phosphate Buffer pH 6.5 (50 mM). Titration experiments of PDZ1 (WT), PDZ1ext (WT) and PDZ1ext (G103R) against ADGRV1pbm peptide were performed in Tris HCl pH 7.5 (50 mM). Averaged Chemical Shifts Perturbations (CSP) were calculated as: Δδavg = ((Δδ(^1H))^2+(Δδ(^15N)*0.159)^2)^½. […]
We characterized the potential effect of the two substitutions on the interaction with ADGRV1pbm using a panel of techniques. First, we confirmed by NMR that PDZ1ext G103R is well-folded, with significant perturbations (CSPs >0.04 ppm) only detected for residues spatially close to the G103R mutation (Supplementary Figure S10). […] We calculated Rg = 28 Å and Dmax = 118.2 Å for the mutant tandem without ligand, and Rg = 27.7 Å and Dmax = 123.6 Å in presence of ADGRV1pbm peptide. […]

[3] = biological target: T3, PDZD7 P1P2 G103R (Mus musculus, UniProt E9Q9W7, G103R); assay: Fluorescence titration of P1P2 G103R
T3 construct: PDZ2ext (206-313), P1P2 (81-313); GST (followed by TEV site) (N, cleaved yes); made in house; host or cells: E. coli BL21 DE3
T3 sequence (E9Q9W7 81-313 G103R): as the sequence (E9Q9W7 81-313) above, with G23R counted along it
Experimental: Fluorescence titrations were performed on a Jasco V-730 spectrometer using quartz cell 109.004F-QS (Hellma Analytics) with an optical path of 10 mm and with thick side to reduce the inner filter effect. PDZ1ext and P1P2 were prepared in Phosphate Buffer pH 6.6 (50 mM) at 6 and 2 µM respectively, while PDZ2ext was prepared in Tris HCl pH 7.5 (50 mM) at 5 µM. Variations in the quantum yield of fluorescence of tryptophans from the sample were monitored upon progressive addition of buffered ADGRV1pbm peptide. After peptide addition, the sample is homogenized by in-spectrometer magnet agitation for 30 s. The sample is left to rest for an additional 60 s before measurement. Excitation is set at 295 nm and fluorescence was measured at the maximum emission wavelength (346-349 nm) of the unbound form with a 5 nm bandwidth for both. Titration curves were fitted using the following formula: y = Fp∗p0+(Fx-Fp)∗0.5∗(R∗I0+(1-R)∗x + K-((R∗I0+(1-R)∗x + K)^2-4∗R∗(I0-x)∗x)^1/2), where p0 is the initial protein concentration, I0 the peptide stock concentration, R the p0/I0 ratio, x the volume of added peptide in µl, Fp the fluorescence of PDZ constructs, Fx the fluorescence of the complex, and K the Kd. The values of p0, I0 and R are kept constant.
We characterized the potential effect of the two substitutions on the interaction with ADGRV1pbm using a panel of techniques. […]

Kd [1]: 1.6 ± 0.3 µM | Kd [2]: 1190 µM | Kd [3]: 1.9 ± 0.4 µM
Sequence: VELRRIPIADTHL [ADGRV1pbm]
